Results taken from patent US20090048291A1, “Novel Piperidine-4-Acetic Acid Derivatives and Their Use” (Euroscreen S.A., priority 2007, published 2009).
pEC50, pIC50: −log10 of the molar value. Read-outs that look alike come from different tables or passages of the source.

Assays:
[1] = tested on: recombinant and non-replicative HIV virus coding for the firefly luciferase; experiment: Inhibitory effect on HIV infection to MAGI-CCR5 cells (HIV-luciferase assay); type: cell-based
Procedure: The inhibitory activity of the compounds of the invention on HIV infection is measured on the human MAGI R5 recombinant cell line coexpressing the human CCR5 receptor and CD4 at their extracellular membrane. MAGI R5 cells are plated in black view plates at 10,000 cells/well and incubated with the appropriate concentrations of the compounds of the invention during 1 hour. This is followed by a 24 hours infection period with the recombinant and non-replicative HIV virus coding for the firefly luciferase (Bona et al., 2006, Antimicrob. Agents Chemother. 50: 3407-3417). The inhibitory effect of the tested compound on virus entry in MAGI R5 cells is measured by a reduction of luciferase signal (TopCount-NXT reader (Packard) and detection luciferase kit: Steadylite HTS assay kit (Perkin Elmer)) in the presence of the compound of the invention relative to the maximum signal obtained from cells infected with the virus without any added compound. The results of the tested compounds are reported as the concentration of compound required to inhibit 50% (IC50) of the maximum luciferase signal.

[2] = target: T1, CCR5 receptor (Homo sapiens, UniProt P51681); experiment: 125I-MIP-1β binding competition assay; set-up: expressed in transfected cells; host or cells: Chinese hamster ovary recombinant cells (membranes)
T1 sequence (P51681 whole entry): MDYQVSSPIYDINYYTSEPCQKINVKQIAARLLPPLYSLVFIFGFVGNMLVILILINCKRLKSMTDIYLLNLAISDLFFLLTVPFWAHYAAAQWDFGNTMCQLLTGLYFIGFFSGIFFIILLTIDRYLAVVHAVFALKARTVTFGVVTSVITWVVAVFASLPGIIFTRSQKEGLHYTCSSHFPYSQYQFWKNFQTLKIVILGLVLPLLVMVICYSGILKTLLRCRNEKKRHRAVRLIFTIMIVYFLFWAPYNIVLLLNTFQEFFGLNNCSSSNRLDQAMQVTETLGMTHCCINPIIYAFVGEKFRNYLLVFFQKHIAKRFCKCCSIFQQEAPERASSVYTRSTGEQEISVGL
Procedure: The ability of the compounds of the invention to inhibit the binding of […] was assessed by an in vitro radioligand binding assay. Membranes were prepared from Chinese hamster ovary recombinant cells which express the human CCR5 receptor. The membranes were incubated with 0.05 nM ^125I-MIP-1β in a HEPES 25 mM/CaCl2 5 mM/MgCl2 1 mM buffer and various concentrations of the compounds of the invention. The amount of iodinated MIP-1β bound to the receptor was determined after filtration by the quantification of membrane associated radioactivity using the TopCount-NXT reader (Packard). Competition curves were obtained for compounds of the invention and the concentration of compound which displaced 50% of bound radioligand (IC50) was calculated

[3] = target: T1, CCR5 receptor; experiment: Calcium flux aequorin-based assay (agonist response); type: cell-based; set-up: expressed in transfected cells; host or cells: Chinese hamster ovary cells coexpressing apoaequorin and Gα16; conditions: for pEC50: Chinese hamster ovary cells expressing the CCR5 receptor, apoaequorin and Gα16, read-out: Aequorin/Ca++ assay EC50
Procedure: The aequorin assay uses the responsiveness of aequorin to intracellular calcium release induced by the activation of G Protein Coupled Receptors (Stables et al., 1997, Anal. Biochem. 252:115-126; Detheux et al., 2000, J. Exp. Med., 192 1501-1508). Briefly, Chinese hamster ovary cells expressing the CCR5 receptor are transfected to coexpress apoaequorin and Gα16. Cells are incubated with 5 μM Coelenterazine H (Promega) overnight at room temperature, and resuspended at a concentration of 0.1×10^6 cells/ml. Cells are then mixed with test agonist compounds and light emission by the aequorin is recorded with a luminometer (PDSS 6000-Hamamatsu) for 30 sec. Results are expressed as Relative Light Units (RLU). Controls include cells not expressing CCR5 in order to exclude possible non-specific effects of the test compound.
An agonist response is defined as an increase of light emission by aequorin corresponding to 10% or more of the light emitted by a reference sample of cells expressing CCR5 and treated with a the reference agonist ligand MIP-1β. The results of the tested compounds are reported as the concentration of compound required to reach 50% (EC50) of the maximum level of light emission induced by these compounds.

[4] = tested on: recombinant and non-replicative HIV virus coding for the firefly luciferase; experiment: Inhibitory effect on HIV infection to MAGI-CCR5 cells (HIV-luciferase assay); type: cell-based; conditions: 10 μM of the compound; MAGI R5 cells (footnote b)
[5] = Human immunodeficiency virus 1, MAGI-CCR5, read-out: HIV-luciferase assay IC50
[6] = membranes of CHO cells expressing human CCR5, 0.05 nM 125I-MIP-1β, read-out: 125I-MIP-1β binding assay IC50

Row | SMILES | pIC50 [1, 5] | pIC50 [2, 6] | pEC50 [3] | pIC50 ([2]; range over the group, read-out: IC50 (125I-MIP-1β binding), range stated in text for the listed compounds) | pIC50 ([1]; Human immunodeficiency virus 1, MAGI, read-out: IC50 (HIV infection of MAGI R5 cells)) | level of calcium/aequorin response compared to the calcium/aequorin response of MIP-1β at 100 nM ([3]; 10 μM of the compound, activity too low for accurate EC50 calculation (footnote a)) | level of inhibition of luciferase activity compared to the inhibition induced by Rantes at 100 nM [4] [%^b]
1 | COc1ccc(NC(=O)CC2CCN([C@H](C)CN(c3ccccc3)S(=O)(=O)Cc3ccccc3)CC2)cc1 [Compound 96] | 8.41 | 9.40 | 7.15 | – | – | – | –
2 | Cc1cc(NC(=O)CC2CCN([C@H](C)CN(c3ccccc3)S(=O)(=O)CC3CCC(F)(F)CC3)CC2)[nH]n1 [Compound 55] | – | – | – | 6.36 to 7.88 | – | – | –
3 | O=C(CC1CCN(CCN(c2ccccc2)c2ccccc2)CC1)Nc1ccc(F)cc1 [Compound 4] | 5.61 | 7.15 | 6.15 | – | – | – | –
4 | C[C@H](CN(c1ccccc1)S(=O)(=O)Cc1ccccc1)N1CCC(CC(=O)Nc2ccc(F)cc2F)CC1 [Compound 98] | 8.44 | 9.40 | 7.22 | – | – | – | –
5 | O=C(CC1CCN(CCN(c2ccccc2)c2ccccc2)CC1)NCc1ccccc1 [Compound 50] | 5.79 | 6.36 | – | – | 5.80 | +9.5%^a | –
6 | Cc1ccc(NC(=O)CC2CCN(CCN(c3ccccc3)c3ccccc3)CC2)cc1 [Compound 8] | 5.67 | 7.87 | 6.37 | – | – | – | –
7 | O=C(CC1CCN(CCN(c2ccccc2)c2ccccc2)CC1)NC1CCCCC1 [Compound 17] | – | 6.87 | 6.36 | – | – | – | 55.8
8 | COc1ccc(CNC(=O)CC2CCN(CCN(c3ccccc3)c3ccccc3)CC2)cc1 [Compound 16] | – | 6.84 | 6.12 | – | – | – | 79.6
9 | O=C(CC1CCN(CCN(c2ccccc2)c2ccccc2)CC1)Nc1ccc(Cl)cc1 [Compound 6] | 5.69 | 6.94 | 5.75 | – | – | – | –
10 | COc1ccc(NC(=O)CC2CCN(CC[C@H](NC(=O)C3CCC(F)(F)CC3)c3ccccc3)CC2)cc1 [Compound 69] | 8.57 | – | 7.44 | – | – | – | –
11 | O=C(CC1CCN(CCN(c2ccccc2)c2ccccc2)CC1)NCc1ccc(Cl)cc1 [Compound 15] | 5.84 | 6.98 | 5.36 | – | – | – | –
12 | CCCCc1ccc(NC(=O)CC2CCN(CCN(c3ccccc3)c3ccccc3)CC2)cc1 [Compound 27] | – | 6.78 | 5.63 | – | – | – | 31.5
